Each compound was assayed on BJAB (malignant human B-cell-line) (assay: BJAB cell proliferation). Conditions: BJAB (malignant human B-cell-line) cell proliferation, EC50.
Format: cell-based
Set-up: scale not given here
Excerpt: In certain embodiments, the therapeutic compound is one of the compounds of the compound table below. […] In certain embodiments, the therapeutic compound is a compound having an activity as “A,” “B” or “C” in the table below. In certain embodiments, the therapeutic compound is a compound having an activity as “A” or “B” in the table below. In certain embodiments, the therapeutic compound is a compound having an activity as “A” in the table below.
In certain embodiments, the therapeutic compound is one of the compounds of the compound table below, optionally provided as a pharmaceutically-acceptable salt or N-oxide, and/or a solvate or hydrate. […] In certain embodiments, the therapeutic compound is a compound having an activity as “A,” “B” or “C” in the table below. In certain embodiments, the therapeutic compound is a compound having an activity as “A” or “B” in the table below. In certain embodiments, the therapeutic compound is a compound having an activity as “A” in the table below.

Row | SMILES | BJAB
1 | Cc1cc(-c2cn(-c3nc(-c4ccc(Cl)c(Cl)c4)c(SC(C)C)s3)nc2C)cc(C)n1 [Compound B9, 4-(3,4-dichlorophenyl)-2-(4-(2,6-dimethylpyridin-4-yl)-3-methyl-1H-pyrazol-1-yl)-5-(isopropylthio)thiazole] | A, C, L

Same assay, conditions: BJAB (malignant human B-cell-line) cell proliferation, EC50; read-out: BJAB

Row | SMILES | EC50
2 | Cc1cc(C(=O)O)n(-c2nc(-c3ccc(Cl)cc3OC3COC3)c(SC(C)C)s2)n1 [Compound B1, 1-(4-(4-chloro-2-(oxetan-3-yloxy)phenyl)-5-(isopropylthio)thiazol-2-yl)-3-methyl-1H-pyrazole-5-carboxylic acid] | > 40 µM
3 | Cc1cc(C(=O)O)n(-c2nc(-c3ccc(Cl)c(OC4COC4)c3)c(SC(C)C)s2)n1 [Compound B2, 1-(4-(4-chloro-3-(oxetan-3-yloxy)phenyl)-5-(isopropylthio)thiazol-2-yl)-3-methyl-1H-pyrazole-5-carboxylic acid] | > 40 µM
4 | Cc1nnc(-c2ccc(-c3nc(-n4nc(C)c(-c5cccc(F)c5)c4C(=O)O)sc3SC(C)C)cc2)o1 [Compound B3, 4-(3-fluorophenyl)-1-(5-(isopropylthio)-4-(4-(5-methyl-1,3,4-oxadiazol-2-yl)phenyl)thiazol-2-yl)-3-methyl-1H-pyrazole-5-carboxylic acid] | 25 to 50 µM
5 | Cc1nn(-c2nc(C3=CCC(C)CC3)c(SC(C)C)s2)c(C(=O)O)c1-c1cccc(F)c1 (stereo not shown) [Compound B4, 4-(3-fluorophenyl)-1-(5-(isopropylthio)-4-(4-methylcyclohex-1-en-1-yl)thiazol-2-yl)-3-methyl-1H-pyrazole-5-carboxylic acid] | 1 to 5 µM
6 | Cc1nn(-c2nc(C3=CCC(C)(C)CC3)c(SC(C)C)s2)c(C(=O)O)c1-c1cccc(F)c1 [Compound B6, 1-(4-(4,4-dimethylcyclohex-1-en-1-yl)-5-(isopropylthio)thiazol-2-yl)-4-(3-fluorophenyl)-3-methyl-1H-pyrazole-5-carboxylic acid] | < 1 µM
7 | Cc1nn(-c2nc(C3=CCC4(CC3)OCCO4)c(SC(C)C)s2)c(C(=O)O)c1-c1cccc(F)c1 [Compound B7, 4-(3-fluorophenyl)-1-(5-(isopropylthio)-4-(1,4-dioxaspiro[4.5]dec-7-en-8-yl)thiazol-2-yl)-3-methyl-1H-pyrazole-5-carboxylic acid] | 25 to 50 µM
8 | Cc1nn(-c2nc(-c3ccc(Cl)c(C(=O)N4CCOCC4)c3)c(SC(C)C)s2)c(C(=O)O)c1-c1cccc(F)c1 [Compound B8, 1-(4-(4-chloro-3-(morpholine-4-carbonyl)phenyl)-5-(isopropylthio)thiazol-2-yl)-4-(3-fluorophenyl)-3-methyl-1H-pyrazole-5-carboxylic acid] | > 40 µM
9 | Cc1nn(-c2nc(-c3ccc(C(F)(F)F)cc3)c(SC(C)C)s2)c(C)c1-c1cccc(F)c1 [Compound B10, 2-(4-(3-fluorophenyl)-3,5-dimethyl-1H-pyrazol-1-yl)-5-(isopropylthio)-4-(4-(trifluoromethyl)phenyl)thiazole] | > 40 µM
10 | Cc1nn(-c2nc(N3CCCCC3)c(SC(C)C)s2)c(C(=O)O)c1-c1cccc(F)c1 [Compound B11, 4-(3-fluorophenyl)-1-(5-(isopropylthio)-4-(piperidin-1-yl)thiazol-2-yl)-3-methyl-1H-pyrazole-5-carboxylic acid] | 10 to 25 µM
11 | Cc1nn(-c2nc(N3CCC(C(F)(F)F)CC3)c(SC(C)C)s2)c(C(=O)O)c1-c1cccc(F)c1 [Compound B12, 4-(3-fluorophenyl)-1-(5-(isopropylthio)-4-(4-(trifluoromethyl)piperidin-1-yl)thiazol-2-yl)-3-methyl-1H-pyrazole-5-carboxylic acid] | < 1 µM
12 | COc1nn(-c2nc(-c3ccc(C(F)(F)F)cc3)c(SC(C)C)s2)c(C(=O)O)c1-c1cccc(F)c1 [Compound B13, 4-(3-fluorophenyl)-1-(5-(isopropylthio)-4-(4-(trifluoromethyl)phenyl)thiazol-2-yl)-3-methoxy-1H-pyrazole-5-carboxylic acid] | 1 to 5 µM
13 | Cc1nn(-c2nc(N3CCOCC3)c(SC(C)C)s2)c(C(=O)O)c1-c1cccc(F)c1 [Compound B14, 4-(3-fluorophenyl)-1-(5-(isopropylthio)-4-morpholinothiazol-2-yl)-3-methyl-1H-pyrazole-5-carboxylic acid] | > 40 µM
14 | CC(C)Sc1sc(-n2nc(O)c(-c3cccc(F)c3)c2C(=O)O)nc1-c1ccc(C(F)(F)F)cc1 [Compound B15, 4-(3-fluorophenyl)-3-hydroxy-1-(5-(isopropylthio)-4-(4-(trifluoromethyl)phenyl)thiazol-2-yl)-1H-pyrazole-5-carboxylic acid] | > 20 µM
15 | Cc1nn(-c2nc(-c3ccc(Cl)c(Cl)c3)n(CC(C)C)n2)c(C(=O)O)c1-c1cccc(F)c1 [Compound B16, 1-(5-(3,4-dichlorophenyl)-1-isobutyl-1H-1,2,4-triazol-3-yl)-4-(3-fluorophenyl)-3-methyl-1H-pyrazole-5-carboxylic acid] | > 20 µM
16 | Cc1nn(-c2nc(-c3ccc(Cl)c(Cl)c3)nn2CC(C)C)c(C(=O)O)c1-c1cccc(F)c1 [Compound B17, 1-(3-(3,4-dichlorophenyl)-1-isobutyl-1H-1,2,4-triazol-5-yl)-4-(3-fluorophenyl)-3-methyl-1H-pyrazole-5-carboxylic acid] | > 20 µM

Same assay, conditions: BJAB cell proliferation

Row | SMILES | EC50
17 | Cc1nn(-c2nc(-c3ccc(Cl)c(Cl)c3)c(SC(C)C)s2)c(C(=O)O)c1-c1cccc(F)c1 [Compound A151, 1-(4-(3,4-dichlorophenyl)-5-(isopropylthio)thiazol-2-yl)-4-(3-fluorophenyl)-3-methyl-1H-pyrazole-5-carboxylic acid] | A, B
18 | Cc1nn(-c2nc(-c3ccc(C#N)cc3)c(SC(C)C)s2)c(C(=O)O)c1-c1cccc(F)c1 [Compound A213, 1-(4-(4-cyanophenyl)-5-(isopropylthio)thiazol-2-yl)-4-(3-fluorophenyl)-3-methyl-1H-pyrazole-5-carboxylic acid] | C-

Same assay, conditions: BJAB cell proliferation; read-out: EC50

Row | SMILES | EC50
19 | Cc1nn(-c2nc(-c3ccc(Cl)c(Cl)c3)c(SC(C)C)s2)c(CO)c1-c1ccccc1 [Compound A88, (1-(4-(3,4-dichlorophenyl)-5-(isopropylthio)thiazol-2-yl)-3-methyl-4-phenyl-1H-pyrazol-5-yl)MeOH] | > 25 µM
20 | Cc1nn(-c2nc(-c3ccc(Cl)c(Cl)c3)c(SC(C)C)s2)c(C(=O)O)c1Cc1ccccc1NS(=O)(=O)N(C)C [Compound A122, 1-(4-(3,4-dichlorophenyl)-5-(isopropylthio)thiazol-2-yl)-4-(2-(N,N-dimethylsulfamoylamino)benzyl)-3-methyl-1H-pyrazole-5-carboxylic acid] | 10 to 25 µM

Same assay, conditions: Homo sapiens; BJAB cell proliferation; read-out: EC50

Row | SMILES | EC50
21 | COc1cc(Cl)cc(-c2c(C)nn(-c3nc(-c4ccc(C(F)(F)F)cc4)c(SC(C)C)s3)c2C(=O)O)c1 [Compound A222, 4-(3-chloro-5-methoxyphenyl)-1-(5-(isopropylthio)-4-(4-(trifluoromethyl)phenyl)thiazol-2-yl)-3-methyl-1H-pyrazole-5-carboxylic acid] | < 1 µM
22 | Cc1nn(-c2nc(-c3ccc(OC(F)(F)F)cc3)c(SC(C)C)s2)c(C(=O)O)c1-c1cccc(F)c1 [Compound A223, 4-(3-fluorophenyl)-1-(5-(isopropylthio)-4-(4-(trifluoromethoxy)phenyl)thiazol-2-yl)-3-methyl-1H-pyrazole-5-carboxylic acid] | 1 to 5 µM
